Results published in paper PMC9421655, “Novel Antagonist of the Type 2 Lysophosphatidic Acid Receptor (LPA2), UCM-14216, Ameliorates Spinal Cord Injury in Mice” (Journal of Medicinal Chemistry, 2022).

Key:
LPA2 mutant K22A = molecular target: T1, LPA2 mutant K22A (Homo sapiens, UniProt Q9HBW0, K19A); test: Ca2+ mobilization in McA-RH7777 cells transfected with LPA2 point mutant K22A; assay type: cell-based; details: 54 at 10 μM, 10 μM LPA
T1 construct: host or cells: McA-RH7777 (CRL-1601, ATCC), transient, pcDNA3.1
T1 sequence (Q9HBW0 whole entry K19A): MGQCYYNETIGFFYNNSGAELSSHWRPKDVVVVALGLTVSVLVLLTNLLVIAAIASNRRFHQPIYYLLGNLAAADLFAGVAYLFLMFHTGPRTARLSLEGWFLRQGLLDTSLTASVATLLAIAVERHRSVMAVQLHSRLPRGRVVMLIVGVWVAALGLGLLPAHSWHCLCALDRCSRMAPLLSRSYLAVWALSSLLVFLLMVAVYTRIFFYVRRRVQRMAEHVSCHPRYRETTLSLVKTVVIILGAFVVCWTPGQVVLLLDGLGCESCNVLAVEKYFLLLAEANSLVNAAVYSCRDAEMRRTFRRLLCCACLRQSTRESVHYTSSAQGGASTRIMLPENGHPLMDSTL

LPA2 = molecular target: T2, LPA2 (Homo sapiens, UniProt Q9HBW0); test: Free solution assay-compensated interferometric reader (FSA-CIR) binding, LPA2; details: receptor-containing nanovesicles, read-out: binding equilibrium constant (KD) at LPA2
T2 construct: expressed in transfected cells
T2 sequence (Q9HBW0 whole entry, species assumed): as the sequence (Q9HBW0 whole entry K19A) above, with A19K counted along it
Experimental: (§1) The assay was analyzed using a benchtop Compensated Interferometric Reader (CIR) that measured the light refractive index (ΔRI) change from binding-induced conformational and/or hydration changes produced by real time binding events in a sample (receptor containing nanovesicles plus compound) and compared to a nonbinding reference (RI matched buffer plus compound).[30] Finally, the interferometric signal from vector nanovesicles binding (nonspecific) to compound was subtracted from the LPA2,4–6 containing nanovesicles binding (total) to compound, to determine the specific binding interactions of the compounds to LPA2,4–6. The concentration-dependent change in RI (ΔRI) signal from the compounds to LPA2,4–6 or vector was fitted using the single site total vs nonspecific binding isotherm using GraphPad Prism. Specific KD values were determined by fitting the total minus nonspecific signal to a single site binding isotherm.
(§2) The detailed free solution assay method was described previously.[25],[26] All the compounds were dissolved in 100% DMSO, aliquoted, and frozen at −80 °C for 1 week. The compound dilution series was freshly prepared in 0.5% DMSO/PBS (pH 7.4) to keep the maximum compound in solution. […]

LPA2 K278A mutant = molecular target: T3, LPA2 K278A mutant (Homo sapiens, UniProt Q9HBW0, K275A); test: Ca2+ mobilization in McA-RH7777 cells transfected with LPA2 point mutant K278A; assay type: cell-based
T3 construct: host or cells: McA-RH7777 (CRL-1601, ATCC), transient, pcDNA3.1
T3 sequence (Q9HBW0 whole entry K275A): as the sequence (Q9HBW0 whole entry K19A) above, with A19K, K275A counted along it

LPA1 = LPA1 (Homo sapiens, UniProt Q92633); test: cell-based; details: maximum blockade of activation induced by 10 μM LPA (18:1) at 10 μM compound; N.E. = no effect at 10 μM
LPA1, sequence (Q92633 whole entry, species assumed): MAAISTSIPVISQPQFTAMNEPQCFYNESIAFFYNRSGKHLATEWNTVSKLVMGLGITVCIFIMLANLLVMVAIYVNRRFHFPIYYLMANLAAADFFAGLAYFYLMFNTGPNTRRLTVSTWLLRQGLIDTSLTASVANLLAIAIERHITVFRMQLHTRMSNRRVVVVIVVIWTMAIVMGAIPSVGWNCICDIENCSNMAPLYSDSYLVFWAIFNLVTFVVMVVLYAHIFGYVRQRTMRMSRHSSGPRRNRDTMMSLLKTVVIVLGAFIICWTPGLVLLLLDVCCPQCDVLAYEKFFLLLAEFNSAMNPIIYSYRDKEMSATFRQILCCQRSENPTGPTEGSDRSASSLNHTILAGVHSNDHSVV
Experimental: (§3) Cells stably expressing the corresponding LPA1–3 receptor were grown as described previously.[18] Changes in intracellular calcium levels were measured by using the fluorescent calcium sensitive dye Fluo-4 NW (Invitrogen). RH7777 cells or B103 cells were plated on poly-D-lysine or collagen coated, respectively, black-wall clear-bottom 96-well plates (Corning) at a density of 50 000 cells/well and cultured overnight. The culture medium was then replaced with 100 μL of Fluo-4 NW dye loading solution containing 2.5 μM of probenecid and incubated for 30 min at 37 °C followed by an additional 30 min at rt. […] Fluorescence changes were registered in a FluoStar Optima instrument (BMG Labtech) at 525 nm using an excitation wavelength of 494 nm. […] The data presented are from two to four independent experiments carried out in triplicate or quadruplicate. Dose–response curves were generated and IC50 values calculated by nonlinear regression analysis using Prism software version 5 (GraphPad Software Inc., San Diego, CA, USA).

LPA3 = molecular target: T4, LPA3 (Homo sapiens, UniProt Q9UBY5); test: cell-based; details: maximum blockade of activation induced by 10 μM LPA (18:1) at 10 μM compound; N.E. = no effect at 10 μM
T4 sequence (Q9UBY5 1-353): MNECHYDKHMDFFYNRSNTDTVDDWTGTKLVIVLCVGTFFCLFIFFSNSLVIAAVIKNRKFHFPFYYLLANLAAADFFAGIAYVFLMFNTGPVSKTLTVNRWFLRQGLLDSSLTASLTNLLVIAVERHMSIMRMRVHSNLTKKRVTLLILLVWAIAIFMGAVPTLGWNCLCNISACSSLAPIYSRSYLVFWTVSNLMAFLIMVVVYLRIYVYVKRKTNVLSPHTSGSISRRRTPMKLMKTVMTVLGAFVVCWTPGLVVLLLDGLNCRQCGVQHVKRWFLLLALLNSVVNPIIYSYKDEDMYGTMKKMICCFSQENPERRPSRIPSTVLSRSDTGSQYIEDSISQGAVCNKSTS
Experimental: as §3

[1] = Metabolic stability in mouse liver microsomes; assay type: in vitro ADME; details: male, CD-1, mouse, liver microsomes (pooled), 1 mg/mL protein, NADPH, 37 °C, read-out: stability (t1/2, min) MLMs
Experimental: Reactions were initiated by the addition of a suspension of mouse liver microsomes (MLMs) (male CD-1 mice pooled, Sigma-Aldrich) or human liver microsomes (HLMs) (male human pooled, Sigma-Aldrich), respectively, at a final protein concentration of 1 mg/mL. […] Aliquots of 100 μL were quenched at time zero and at seven points ranging to 2 h (MLM) or 4 h (HLM) by pouring into 100 μL of ice-cold acetonitrile. […] The relative disappearance of the compound under study over the course of the incubation was monitored by HPLC-MS using SIM mode. Concentrations were quantified by measuring the area under the peak ([M + H]^+) normalized with an internal standard and converted to the percentage of compound remaining, using the time zero peak area value as 100%. The natural logarithm of the remaining percentage versus time data for each compound was fit to a linear regression, and the slope was used to calculate the degradation half-life (t1/2).

LPA4 = LPA4 (Homo sapiens, UniProt Q99677); details: in abstract
LPA4, sequence (Q99677 whole entry, species assumed): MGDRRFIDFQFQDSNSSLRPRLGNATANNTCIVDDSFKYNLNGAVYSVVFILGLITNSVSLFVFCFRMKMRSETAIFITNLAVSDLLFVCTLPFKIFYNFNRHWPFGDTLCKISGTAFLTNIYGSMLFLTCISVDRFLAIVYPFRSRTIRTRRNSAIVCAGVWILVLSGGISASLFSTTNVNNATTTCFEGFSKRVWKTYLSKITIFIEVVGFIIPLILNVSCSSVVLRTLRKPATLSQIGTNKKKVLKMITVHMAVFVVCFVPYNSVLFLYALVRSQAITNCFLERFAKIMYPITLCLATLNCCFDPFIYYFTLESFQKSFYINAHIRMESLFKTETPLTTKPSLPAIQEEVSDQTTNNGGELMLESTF
Experimental: as §1, §2

LPA5 = LPA5 (Homo sapiens, UniProt Q9H1C0); details: in abstract
LPA5, sequence (Q9H1C0 whole entry, species assumed): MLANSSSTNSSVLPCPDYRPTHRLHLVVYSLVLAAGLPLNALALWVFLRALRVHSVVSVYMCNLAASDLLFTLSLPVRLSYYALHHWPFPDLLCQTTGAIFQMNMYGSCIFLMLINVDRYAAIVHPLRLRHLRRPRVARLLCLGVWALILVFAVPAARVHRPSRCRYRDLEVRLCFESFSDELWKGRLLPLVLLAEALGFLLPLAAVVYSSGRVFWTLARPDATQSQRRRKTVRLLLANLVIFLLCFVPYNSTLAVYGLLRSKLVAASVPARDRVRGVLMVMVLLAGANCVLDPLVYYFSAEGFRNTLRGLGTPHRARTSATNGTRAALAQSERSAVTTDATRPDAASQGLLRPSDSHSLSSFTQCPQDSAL
Experimental: as §1, §2

[2] = system: spinal cord injury in C57Bl/6J mice; test: Spinal cord contusion injury model, locomotor recovery (Basso Mouse Scale); assay type: in vivo; details: C57Bl/6 mice
Experimental: BMS is the gold standard test used for locomotor scoring after SCI in which two blinder observers score the mouse motor performance based on a nine-point scale.[28]
Adult female C57Bl/6J mice (10–12 weeks old) and LPA2 null mice were anesthetized by intramuscular injection with a mixture of ketamine and xylazine (90:10 mg/kg). A laminectomy was performed at the 11th thoracic vertebrae and the exposed spinal cord was contused using the Infinite Horizon Impactor device (Precision Scientific Instrumentation) using a force of 60 kdynes. Only mice showing a spinal cord tissue displacement ranging between 450 and 550 μm were selected.

SMILES: Cc1[nH]nc(-c2ccc(OCc3nnn[nH]3)cc2O)c1Oc1ccc(Cl)cc1Cl [Compound 54]
- agonist/antagonist activity at LPA2 K22A mutant (LPA2 mutant K22A): no significant agonist nor antagonist activity
- Kd (LPA2): 1.3 nM
- functional activity at LPA2 K278A mutant (LPA2 K278A mutant; 10 μM): behaved as an agonist
- activation of LPA2 K278A mutant (LPA2 K278A mutant; at 10 μM, stimulation by 10 μM LPA normalized to 100%): 75 ± 5%
- Emax (%) LPA1 (LPA1): inactive and N.E.
- melting point: 180 to 182 °C
- Emax (%) LPA3 (LPA3): inactive and N.E.
- half-life at 1 μM [1]: 50 ± 6 min
- activity at LPA4 receptor (LPA4): inactive
- activity at LPA5 receptor (LPA5): inactive
- BMS score ([2]; 25 mg/kg i.p. daily for 10 days from 1 h after lesion, day 50 postinjury, scale 0-9): 4.1 ± 0.3
- locomotor recovery after SCI (BMS) ([2]; 25 mg/kg i.p. daily for 10 days, significant from day 35 postinjury onward): significant improvement in locomotor recovery after SCI
